Converted amounts (≈) assume the structure as drawn.
Experiments:
physchem [1] = test: physchem
Description: Solubility of the compound

in vivo [2] = conditions: rat, po, 5 mg/kg
Description: Cmax in rat at 5 mg/kg, po

in vivo [3] = conditions: rat, po, 5 mg/kg; remark: listed apart in the source
Description: Oral bioavailability in rat at 5 mg/kg

in vivo [4] = conditions: mouse, iv, 2 mg/kg
Description: Volume of distribution at steady state in mouse at 2 mg/kg, iv and 5 mg/kg, po

in vitro [5] = conditions: dog, plasma
Description: Fraction unbound in dog plasma

in vitro [6] = conditions: mouse, plasma
Description: Fraction unbound in mouse plasma

in vivo [7] = conditions: dog, iv, 2 mg/kg
in vitro [8] = conditions: dog, MDCK
Description: Apparent permeability across apical to basolateral side in dog MDCK cells at 10 uM

in vivo [9] = conditions: rat, plasma, iv, 2 mg/kg
in vivo [10] = conditions: mouse, iv, 2 mg/kg; remark: listed apart in the source
Description: Half life in mouse at 2 mg/kg, iv

in vivo [11] = conditions: dog, iv, 2 mg/kg; remark: listed apart in the source
Description: Half life in dog at 2 mg/kg, iv

in vitro [12] = conditions: human, Caco-2
in vitro [13] = conditions: rat, plasma
Description: Fraction unbound in rat plasma

in vivo [14] = conditions: rat, po, 5 mg/kg; remark: listed apart in the source
Description: Half life in rat at 5 mg/kg, po

in vivo [15] = conditions: rat, iv, 2 mg/kg
Description: Half life in rat at 2 mg/kg, iv

in vivo [16] = conditions: dog, po, 13 mg/kg
Description: Cmax in dog at 13 mg/kg, po

physchem [17] = conditions: octanol/water
Description: Lipophilicity, log D of the compound

in vivo [18] = conditions: dog, po, 13 mg/kg; remark: listed apart in the source
Description: Oral bioavailability in dog at 13 mg/kg

in vivo [19] = conditions: mouse, po, 5 mg/kg
Description: Cmax in mouse at 5 mg/kg, po

in vitro [20] = conditions: human, plasma
Description: Fraction unbound in human plasma

in vivo [21] = conditions: mouse, po, 5 mg/kg; remark: listed apart in the source
Description: Half life in mouse at 5 mg/kg, po

in vivo [22] = conditions: dog, po, 13 mg/kg; remark: listed apart in the source
Description: Half life in dog at 13 mg/kg, po

in vivo [23] = conditions: mouse, po, 5 mg/kg; remark: listed apart in the source
Description: Oral bioavailability in mouse at 5 mg/kg

in vivo [24] = conditions: dog, iv, 2 mg/kg; remark: listed apart in the source
Description: Volume of distribution at steady state in dog at 2 mg/kg, iv and 13 mg/kg, po

in vivo [25] = conditions: mouse, plasma, iv, 2 mg/kg
in vivo [26] = conditions: rat, iv, 2 mg/kg; remark: listed apart in the source
Description: Volume of distribution at steady state in rat at 2 mg/kg, iv and 5 mg/kg, po

CN(C(=O)Cc1ccc(-n2cnnn2)cc1)C1CCN(Cc2ccc(C(F)(F)F)cc2)CC1
solubility (physchem [1]): 18 µM (≈ 8.25 µg/mL)
Cmax (in vivo [2]): 2400 nM
bioavailability (in vivo [3]): 66%
Vd (in vivo [4]): 2 L/kg
fraction unbound (in vitro [5]): 0.068
fraction unbound (in vitro [6]): 0.099
clearance (in vivo [7]): 1.3 mL/min/kg
Papp A→B at 10 µM (in vitro [8]): 17 ×10⁻⁶ cm/s
clearance (in vivo [9]): 6.8 mL/min/kg
half-life (in vivo [10]): 2.2 h
half-life (in vivo [11]): 20 h
Papp A→B at 10 µM (in vitro [12]): 57 ×10⁻⁶ cm/s
fraction unbound (in vitro [13]): 0.081
half-life (in vivo [14]): 2.8 h
half-life (in vivo [15]): 2.8 h
Cmax (in vivo [16]): 6400 nM
logD (physchem [17]): 3
bioavailability (in vivo [18]): 35%
Cmax (in vivo [19]): 2200 nM
fraction unbound (in vitro [20]): 0.076
half-life (in vivo [21]): 2.4 h
half-life (in vivo [22]): 18 h
bioavailability (in vivo [23]): 64%
Vd (in vivo [24]): 2.3 L/kg
clearance (in vivo [25]): 12 mL/min/kg
Vd (in vivo [26]): 1.4 L/kg

Cc1nc(-c2ccc(CN3CCC(N(C)C(=O)Cc4ccc(-n5cnnn5)cc4)CC3)cc2)no1
logD (physchem [17]): 2.1

CN(C(=O)Cc1ccc(-n2cnnn2)cc1)[C@H]1CCN(Cc2ccc(C(F)(F)F)cc2)C[C@H]1F
logD (physchem [17]): 3.3

CN(C(=O)Cc1ccc(-n2cnnn2)cc1)[C@@H]1CCN(Cc2ccc(C(F)(F)F)cc2)C[C@@H]1F
logD (physchem [17]): 3.3

CO[C@@H]1CN(Cc2ccc(C(F)(F)F)cc2)CC[C@@H]1N(C)C(=O)Cc1ccc(-n2cnnn2)cc1
logD (physchem [17]): 3.1

CO[C@H]1CN(Cc2ccc(C(F)(F)F)cc2)CC[C@H]1N(C)C(=O)Cc1ccc(-n2cnnn2)cc1
logD (physchem [17]): 3
